Data: US20230310441A1, “TREATMENT FOR SCHIZOPHRENIA” (TAKEDA PHARMACEUTICAL COMPANY, priority 2020, published 2023)
“Also recorded” adds a separate entry of the source. Read-outs that look alike come from different tables or passages of the source.

Assays:
[1] = Phase 1 FIH study: plasma pharmacokinetics in healthy participants; format: in vivo, human; conditions: for Tmax / Cmax / AUC(0-t) / AUC / Vd/F: human, plasma; for Vd/F: read-out: Vz/F (mean)
Description: Part 1 was a double-blind, SRD study in healthy adults, utilizing an alternate panel design (cohorts 1, 2) and sequential panel design (cohorts 3-5). Cohorts 1 and 2 were part of a two-period, alternating-panel, double-blind study of Compound (I) administered as an oral suspension (5 mg, 10 mg, 20 mg, or 40 mg) or matched placebo, with a washout period of at least 7 days between treatment periods. Cohorts 3-5 were part of a sequential-panel, double-blind study to evaluate the SRDs of Compound (I) (80, 120, or 160 mg, respectively) or matched placebo. Although planned, all subsequent doses after the dose of 80 mg were determined based on emerging safety, tolerability, and PK data from the preceding cohorts.
In Part 2, participants received either placebo on all dosing days or a loading dose of Compound (I) on Day 1 and a maintenance dose of half the initial dose on Days 8, 15 and 22, administered as an oral suspension. Baseline measurements were obtained on Day −2, and study-specific measurements were obtained following oral dose administrations on Days 1, 8, 15, and 22.
Part 3 was a randomized, open-label, single-dose, parallel design study to evaluate the bioavailability of a Compound (I) tablet formulation relative to a Compound (I) oral suspension formulation and the effect of food on the PK in healthy participants. The immediate release tablet contained mannitol, microcrystalline cellulose, and other commonly used excipients. Participants were randomized 1:1 to receive a single 40 mg dose of Compound (I) as a tablet after either 10 h overnight fast, or 30 min after beginning ingestion of a high-fat, high-calorie breakfast.
Participants were required to remain in the study unit for an additional 48 h post-dose for safety and PK assessments with follow-up visits on Day 4-5 and on Day 17-21. Blood samples were collected over 96 h post-dose to measure the plasma concentrations of Compound (I).
Plasma and urine concentrations of Compound (I) and urine concentrations of cortisol and 6β-hydroxycortisol were measured by high performance liquid chromatography with tandem mass spectrometry. One 4 mL blood sample was collected per scheduled assessment. For participants receiving placebo, blood samples were analyzed only at pre-dose and around the time Cmax occurred (as emerging from the measurements of the first dose group) to ensure that no additional participants could have been on active treatment. Serial urine samples were collected for Part 1 cohorts 1-5 and Part 2 cohorts 1-4. Urine samples for participants receiving placebo were not analyzed. Urine samples were collected for the determination of cortisol and 6β-hydroxycortisol for Part 2 cohorts 1-4 and for all patients in Part 4. Samples for participants randomized to placebo were analyzed for these parameters.
Pharmacokinetic parameters were determined from the concentration-time profiles for all evaluable participants. Actual sampling times were used in all computations. pharmacokinetic parameters were calculated using non-compartmental analysis using Phoenix WinNonLin v8.0 or SAS v 9.4.

[2] = Phase 1 FIH study Part 4: safety and tolerability (TEAEs) in patients with stable schizophrenia; format: in vivo, human
Excerpt: Part 4 was a double-blind, weekly single dosing, parallel group design in patients with stable schizophrenia.
Participants in the placebo group received placebo on all study dosing days.
In Part 4, participants met schizophrenia criteria as defined by the Diagnostic and Statistical Manual of Mental Disorders, 5th Edition (DSM-5) by the Mini International Neuropsychiatric Interview (MINI), a Positive and Negative Syndrome Scale (PANSS) total score ≤90 and a sum of PANSS N1, N2, N3, N4, N6, G7 and G16≥15 at screening and baseline. In addition, participants had to be on a stable dose of antipsychotic medication for at least two months.
Safety measurements used in the phase 1 study included treatment-emergent adverse events (TEAEs), physical examinations, weight, height, BMI, vital signs, clinical laboratory evaluations, pregnancy monitoring, and ECG procedures.
Participants experiencing two or more different TEAEs were counted only once. Frequent TEAEs were defined as adverse events that occurred in at least two participants in any treatment. Participants were evaluated with respect to mood and alertness (BL-VAS) and suicidality (C-SSRS).

[3] = Part 3, single oral 40 mg tablet
[4] = healthy, oral, 40/20 mg, Day 22, N 6
[5] = healthy, oral, 80/40 mg, Day 22, N 6
[6] = healthy, oral, 120/60 mg, Day 22, N 6
[7] = healthy, oral, 160/80 mg, Day 22, N 6
[8] = po, healthy, oral, 40/20 mg, Day 22, N 6
[9] = po, healthy, oral, 80/40 mg, Day 22, N 6
[10] = po, healthy, oral, 120/60 mg, Day 22, N 6
[11] = po, healthy, oral, 160/80 mg, Day 22, N 6
[12] = Part 4 MRD, 160/80 mg, N = 16, participants (percent)

C[C@H](NC(=O)Cn1nnc2ccccc2c1=O)c1ccc(OC(F)(F)F)cc1 [Compound (I), (S)-2-(4-oxobenzo[d][1,2,3]triazin-3(4H)-yl)-N-(1-(4-(trifluoromethoxy)phenyl)ethyl)acetamide]
mean t1/2z ([1]; Part 1 SRD, 20-160 mg dose range): 210 to 296 h
mean t1/2z at steady state ([1]; Part 2 MRD): 170 to 302 h
dose proportionality of systemic exposure at steady state ([1]; Part 2 MRD, Day 22): increased approximately dose proportionally
ratio for AUC96, tablet under fasted and fed conditions [1, 3]: ~0.942
ratio for Cmax, tablet under fasted and fed conditions [1, 3]: approximately 0.841
food effect on systemic exposure ([1]; Part 3, tablet, fasted vs high-fat, high-calorie meal): no meaningful food effect on systemic exposure; also recorded: minimal food effect
steady-state mean t1/2z ([1]; healthy participants (comparison for Part 4)): 271 h
CL/F (mean) [1, 4]: 334.6 mL/h
Cav,ss (mean) [1, 4]: 393.8 ng/mL
Ctrough (mean) [1, 4]: 274.2 ng/mL
t1/2z (mean) [1, 4]: 299.5 h
CL/F (mean) [1, 5]: 281.9 mL/h
Cav,ss (mean) [1, 5]: 889.3 ng/mL
Ctrough (mean) [1, 5]: 621.3 ng/mL
t1/2z (mean) [1, 5]: 301.7 h
CL/F (mean) [1, 6]: 299.1 mL/h
Cav,ss (mean) [1, 6]: 1206.6 ng/mL
Ctrough (mean) [1, 6]: 862.5 ng/mL
t1/2z (mean) [1, 6]: 169.7 h
CL/F (mean) [1, 7]: 284.6 mL/h
Cav,ss (mean) [1, 7]: 1751.1 ng/mL
Ctrough (mean) [1, 7]: 1209.0 ng/mL
t1/2z (mean) [1, 7]: 270.8 h
saturation of plasma PK ([1]; highest dose level tested): Saturation of plasma PK was observed at 160 mg
Tmax ([1]; oral, 40 mg, Part 3, tablet formulation, fasted and fed states, read-out: median tmax): 2 h
Tmax ([1]; oral, 120 mg, Part 1 SRD, 120 mg (secondary peak in some participants), read-out: median tmax): 13 h
Tmax ([1]; oral, 160 mg, Part 1 SRD, 160 mg (secondary peak in some participants), read-out: median tmax): 13.5 h
Tmax ([1]; oral, Part 1 SRD, dose range 5-80 mg, read-out: median tmax): 0.99 to 3 h
Cmax ([1]; oral, Part 2 MRD, 40/20 mg, up to 168 h post-dose, read-out: Mean Cmax (SD)): 550 ng/mL
Cmax ([1]; oral, Part 2 MRD, 80/40 mg, up to 168 h post-dose, read-out: Mean Cmax (SD)): 880 ng/mL
Cmax ([1]; oral, Part 2 MRD, 120/60 mg, up to 168 h post-dose, read-out: Mean Cmax (SD)): 1260 ng/mL
Cmax ([1]; oral, Part 2 MRD, 160/80 mg, up to 168 h post-dose, read-out: Mean Cmax (SD)): 1760 ng/mL
Tmax ([1]; oral, Part 2 MRD, read-out: median tmax): 1.75 to 3 h
Tmax ([1]; oral, healthy participants (comparison for Part 4), read-out: median tmax): 3 h
Cmax ([1]; po, 5 mg, Part 1 SRD, Cohort 1, 5 mg oral suspension, fasted, up to 96 h post-dose, read-out: Mean Cmax (SD)): 140 ng/mL
Cmax ([1]; po, 10 mg, Part 1 SRD, Cohort 2, 10 mg oral suspension, fasted, up to 96 h post-dose, read-out: Mean Cmax (SD)): 193 ng/mL
Cmax ([1]; po, 80 mg, Part 1 SRD, Cohort 3, 80 mg oral suspension, fasted, up to 168 h post-dose, read-out: Mean Cmax (SD)): 910 ng/mL
Cmax ([1]; po, 120 mg, Part 1 SRD, Cohort 4, 120 mg oral suspension, fasted, up to 168 h post-dose, read-out: Mean Cmax (SD)): 1200 ng/mL
Cmax ([1]; po, 160 mg, Part 1 SRD, Cohort 5, 160 mg oral suspension, fasted, up to 168 h post-dose, read-out: Mean Cmax (SD)): 1120 ng/mL
AUC(0-t) [1, 8]: 191 µg·h/mL
AUC ([1]; po, healthy, oral, 40/20 mg, Day 22, N 6, read-out: AUC24 (mean)): 12 µg·h/mL
AUC ([1]; po, healthy, oral, 40/20 mg, Day 22, N 6, read-out: AUC96 (mean)): 42.2 µg·h/mL
AUC ([1]; po, healthy, oral, 40/20 mg, Day 22, N 6, read-out: AUCτ (mean)): 66.2 µg·h/mL
Cmax ([1]; po, healthy, oral, 40/20 mg, Day 22, N 6, read-out: Cmax (mean)): 698 ng/mL
Vd/F [1, 8]: 112 L
Tmax ([1]; po, healthy, oral, 40/20 mg, Day 22, N 6, read-out: tmax (median)): 1.75 h
AUC(0-t) [1, 9]: 421 µg·h/mL
AUC ([1]; po, healthy, oral, 80/40 mg, Day 22, N 6, read-out: AUC24 (mean)): 24.4 µg·h/mL
AUC ([1]; po, healthy, oral, 80/40 mg, Day 22, N 6, read-out: AUC96 (mean)): 92.7 µg·h/mL
AUC ([1]; po, healthy, oral, 80/40 mg, Day 22, N 6, read-out: AUCτ (mean)): 149 µg·h/mL
Cmax ([1]; po, healthy, oral, 80/40 mg, Day 22, N 6, read-out: Cmax (mean)): 1250 ng/mL
Vd/F [1, 9]: 123 L
Tmax ([1]; po, healthy, oral, 80/40 mg, Day 22, N 6, read-out: tmax (median)): 2 h
AUC(0-t) [1, 10]: 407 µg·h/mL
AUC ([1]; po, healthy, oral, 120/60 mg, Day 22, N 6, read-out: AUC24 (mean)): 35.9 µg·h/mL
AUC ([1]; po, healthy, oral, 120/60 mg, Day 22, N 6, read-out: AUC96 (mean)): 134 µg·h/mL
AUC ([1]; po, healthy, oral, 120/60 mg, Day 22, N 6, read-out: AUCτ (mean)): 203 µg·h/mL
Cmax ([1]; po, healthy, oral, 120/60 mg, Day 22, N 6, read-out: Cmax (mean)): 1740 ng/mL
Vd/F [1, 10]: 73 L
Tmax ([1]; po, healthy, oral, 120/60 mg, Day 22, N 6, read-out: tmax (median)): 3 h
AUC(0-t) [1, 11]: 841 µg·h/mL
AUC ([1]; po, healthy, oral, 160/80 mg, Day 22, N 6, read-out: AUC24 (mean)): 47.4 µg·h/mL
AUC ([1]; po, healthy, oral, 160/80 mg, Day 22, N 6, read-out: AUC96 (mean)): 181 µg·h/mL
AUC ([1]; po, healthy, oral, 160/80 mg, Day 22, N 6, read-out: AUCτ (mean)): 294 µg·h/mL
Cmax ([1]; po, healthy, oral, 160/80 mg, Day 22, N 6, read-out: Cmax (mean)): 2410 ng/mL
Vd/F [1, 11]: 103 L
Tmax ([1]; po, healthy, oral, 160/80 mg, Day 22, N 6, read-out: tmax (median)): 3 h
Tmax ([1]; po, oral suspension (comparison for Part 3), read-out: median tmax): 1.82 h
Tmax ([1]; po, single and repeated oral administration, healthy and schizophrenia patients, read-out: tmax): 0.99 to 3 h
absorption ([1]; single and repeated oral administration, healthy volunteers and patients with stable schizophrenia): rapidly absorbed
dose proportionality of Cmax and AUC ([1]; single oral doses 5-160 mg, healthy): increased less than dose proportionally
TEAE intensity ([2]; Part 4 (MRD)): All TEAEs were mild
frequency of TEAEs related to the study drug ([2]; Part 4 (MRD), patients with schizophrenia who received Compound (I)): 56.3%
Any TEAE [2, 12]: 9 (56.3)
TEAE Mild [2, 12]: 9 (56.3)
TEAE Related [2, 12]: 9 (56.3)
